The values that follow come from patent US4301169A, “Novel imidazole compound and anti-depressing agent containing the same” (Eisai Co., Ltd., priority 1978, dated 1981).

Read-outs that look alike come from different tables or passages of the source.

Data set [1] has as its system reserpine-induced hypothermia. The data set is described as follows: Anti-reserpine activity (antagonism against reserpine-induced hypothermia). Type of data set: in vivo, male ddy mice. The settings on record: Mus musculus; minimum dose necessary for increasing body temperature of reserpine-treated mice significantly (P < 0.05) over control; reserpine 2.5 mg/kg i.p., test compound (hydrochloride) oral 18 hours later. Here is the method:
(§1) Each test compound is used in the form of a hydrochloride.
(1) Anti-reserpine activity:
The antagonism against the reserpine-induced hypothermia is examined according to the method of B. M. Askew (Life Science, 4, 725-730, 1963).
Male ddy mice having a body weight of 19 to 25 g are used as the test animal. Reserpine is injected intraperitoneally in dose of 2.5 mg/kg, and 18 hours after the injection, the test compound is orally administered and the change of the body temperature with the lapse of time is examined by using a thermistor type thermometer (Model MGA III manufactured by Shibaura Denshi).
The effect of each compound is examined with 2 to 4 dose levels.
Each of the test compound is used in the form of an aqueous solution. The control animal is treated with physiological saline solution. Four animals having a body temperature of 24° to 25° C., 18 hours after the injection of reserpine, are used for each dose. The experiment is carried out in a room at 23° to 25° C.
^(a) The minimum dose necessary for increasing the body temperature o

Data set [2] relates to spontaneous motility. In words: Influence on spontaneous motility. Type of data set: in vivo, male ddy mice. Conditions: Mus musculus, 1 h; 40 mg/kg oral, hydrochloride, 60 minutes before start; 60 minutes measurement; * = significant at P <0.05; read-out: Relative Spontaneous Motility (%) to Control. On the procedure:
as §1
(2) Influence on spontaneous motility:
The spontaneous motility is examined according to the method of T. H. Sevensson (Psychopharmacologia, 14, 157, 1969). Three ddy male mice having a body weight of 20 to 25 g are put in a black observation box of an acrylic resin as one group, and the amount of the spontaneous motility during a period of 60 minutes is measured and recorded by using Animex (manufactured by Farrod Co., Sweden).
Sixty minutes before the start of the measurement of the spontaneous motility, the test compound is orally administered in a dose of 40 mg/kg. The control animal is treated with physiological saline solution. Five groups (15 mice) are used for each dose level.
*Significant increase of the spontaneous motility at P <0.05

Data set [3] can be described thus: Acute toxicity (lethal action). The settings on record: mouse, in vivo, mice, hydrochloride, read-out: Acute Toxicity (Lethal Ratio %). Here is the method:
as §1
The test compound is administered in a dose of 100 or 400 mg/kg to mice for examining the lethal action. Five mice are used for each dose level. The lethal ratio is measured 24 hours after oral administration.

Data set [4] relates to dopamine and its metabolites in the mouse brain. In words: Effect on the level of dopamine and its metabolites in the mouse brain. In kind it is in vivo. The text has this: Furthermore, we investigated the effect of the compound of the present invention (compound H and I) on the level of dopamine and its metabolites in the mouse brain. […] This means that the compounds of the invention antagonize against the reserpine-induced depression in a way completely different from the known tricyclic antidepressant.

Data set [5] relates to spontaneous motility. The data set is described as follows: Influence on spontaneous motility. Type of data set: in vivo, male ddy mice. The settings on record: Mus musculus, po, 1 h; 10 mg/Kg P.O. (footnote b), hydrochloride; * = significant at P <0.05; read-out: Relative Spontaneous Motility (%) to Control.

`Cc1ccc(-n2ccnc2C)cc1C` [A, 1-(3,4-Dimethylphenyl)-2-methylimidazole]: the minimal effective dose (usually the smallest amount tested that counted as effective) in data set [1] was 2.5 mg/kg. For the same compound, in data set [2], the response vs control in vivo at 40 mg/kg came to 82 ± 6%. Also, the mortality at 24 h in data set [3] (100 mg/Kg oral) worked out at 0%; in data set [3] (400 mg/Kg oral), 100%.
The like results for `Cc1nccn1-c1ccc(N(C)C)cc1` [B, 1-(4-Dimethylaminophenyl)-2-methylimidazole] were, in that order, 2.5 mg/kg, 526 ± 24%, 0% and 80%.
The compound `CCc1nccn1-c1ccc(Cl)c(Cl)c1` [C, 1-(3,4-Dichlorophenyl)-2-ethylimidazole] came in with a minimal effective dose in data set [1] of 1.25 to 2.5 mg/kg. The response vs control in vivo at 40 mg/kg in data set [2] is 99 ± 7%. Also, the mortality at 24 h was 0% in data set [3] (100 mg/Kg oral) and 20% in data set [3] (400 mg/Kg oral).
The like results for `Cc1cn(-c2ccc(N)cc2)c(C)n1` [D, 1-(4-Aminophenyl)-2,4-dimethylimidazole] were, in that order, 5 mg/kg, 473 ± 48%, 0% and 60%.
The like results for `Cc1nccn1-c1ccc(N)c(C(F)(F)F)c1` [E, 1-(3-Trifluoromethyl-4-aminophenyl)-2-methylimidazole] were, in that order, 5 mg/kg, 70 ± 8%, 0% and 0%.
For `CCc1nccn1-c1ccc(N)cc1` [F, 1-(4-Aminophenyl)-2-ethylimidazole] the same measures were 1.25 mg/kg, 382 ± 25%, 0% and 60%.
As for `Cc1nccn1-c1ccc(N)cc1Cl` [G, 1-(2-Chloro-4-aminophenyl)-2-methylimidazole], in data set [1], the minimal effective dose was 10 mg/kg. Besides, the response vs control in vivo at 40 mg/kg in data set [2] came out at 254 ± 68%. In addition, the mortality at 24 h was found to be 0% in data set [3] (100 mg/Kg oral) and 40% in data set [3] (400 mg/Kg oral).
Regarding `Cc1nccn1-c1cccc(N)c1` [H, 1-(3-Aminophenyl)-2-methylimidazole], the minimal effective dose in data set [1] was found to be 2.5 mg/kg. For the same compound, in data set [2], the response vs control in vivo at 40 mg/kg is 83 ± 3%. The “dopamine turnover in the brain” value in data set [4] is recorded as “reduce dopamine turnover in the brain”. For the same compound, the mortality at 24 h in data set [3] (100 mg/Kg oral) and in data set [3] (400 mg/Kg oral) was 0% in each case.
Compound `Cc1ccc(-n2ccnc2C)cc1N` [I, 1-(3-Amino-4-methylphenyl)-2-methylimidazole] had a minimal effective dose in data set [1] of 5 mg/kg. In addition, the response vs control in vivo at 40 mg/kg in data set [2] was 58 ± 8%. In data set [4], the “dopamine turnover in the brain” value is reported as “reduce dopamine turnover in the brain”. Also, the mortality at 24 h in data set [3] (100 mg/Kg oral) worked out at 0%; in data set [3] (400 mg/Kg oral), 20%.
In the case of `CCCCNc1ccc(-n2ccnc2C)cc1` [J, 1-(4-n-Butylaminophenyl)-2-methylimidazole], the minimal effective dose in data set [1] was 5 mg/kg. The response vs control in vivo at 40 mg/kg in data set [2] is 543 ± 57%. Moreover, the results for the mortality at 24 h in data set [3] (100 mg/Kg oral) and in data set [3] (400 mg/Kg oral) were 0% and 60%, respectively.
As to `Cc1nccn1-c1ccc(N)cc1` [K, 1-(4-Aminophenyl)-2-methylimidazole], in data set [1], the minimal effective dose turned out to be 1.25 mg/kg. Moreover, the mortality at 24 h came out at 40% in data set [3] (100 mg/Kg oral) and 80% in data set [3] (400 mg/Kg oral). Further, the response vs control in vivo at 10 mg/kg in data set [5] stood at 350 ± 31%.
The compound `Cc1nccn1-c1ccc(NC(=O)c2ccc(Cl)cc2)cc1` [L, 1-[4-(4-Chlorobenzoylamino)phenyl]-2-methylimidazole] gave a minimal effective dose in data set [1] of 10 mg/kg. Further, the response vs control in vivo at 40 mg/kg in data set [2] is 367 ± 30%. The mortality at 24 h in data set [3] (100 mg/Kg oral) and in data set [3] (400 mg/Kg oral) was 0% throughout.
Take `Cc1nccn1-c1ccc(NC(=O)c2ccc(F)cc2)cc1` [M, 1-[4-(4-Fluorobenzoylamino)phenyl]-2-methylimidazole]: the minimal effective dose in data set [1] was determined as 10 mg/kg. Moreover, the response vs control in vivo at 40 mg/kg in data set [2] is 229 ± 30%. Also, the mortality at 24 h in data set [3] (100 mg/Kg oral) and in data set [3] (400 mg/Kg oral) was 0% each time.
Compound `CCc1nccn1-c1ccc(NC(=O)c2ccc(Cl)cc2)cc1` [N, 1-[4-(4-Chlorobenzoylamino)phenyl]-2-ethylimidazole] yielded a minimal effective dose in data set [1] of 2.5 mg/kg. Besides, the response vs control in vivo at 40 mg/kg in data set [2] amounted to 207 ± 51%. Also, the mortality at 24 h in data set [3] (100 mg/Kg oral) and in data set [3] (400 mg/Kg oral) was 0% throughout.
Compound `CCc1nccn1-c1ccc(NC(=O)c2ccc(C)cc2)cc1` [O, 1-[4-(4-Methylbenzoylamino)phenyl]-2-ethylimidazole] returned a minimal effective dose in data set [1] of 5 mg/kg. For the same compound, the response vs control in vivo at 40 mg/kg in data set [2] was found to be 287 ± 23%. The mortality at 24 h was found to be 0% in data set [3] (100 mg/Kg oral) and 20% in data set [3] (400 mg/Kg oral).
The like results for `CC(C)c1nccn1-c1ccc(NC(=O)c2ccc(Cl)cc2)cc1` [P, 1-[4-(4-Chlorobenzoylamino)phenyl]-2-isopropylimidazole] were, in that order, 10 mg/kg, 92 ± 14%, 0% and 0%.
On to `Cc1ccc(C(=O)Nc2ccc(-n3ccnc3C)cc2)cc1` [Q, 1-[4-(4-Methylbenzoylamino)phenyl]-2-methylimidazole], for which the minimal effective dose in data set [1] is 10 mg/kg. The response vs control in vivo at 40 mg/kg in data set [2] worked out at 447 ± 51%. The mortality at 24 h in data set [3] (100 mg/Kg oral) was 0%; in data set [3] (400 mg/Kg oral) it was 40%.
